For one assay, the system named is cucumber cotyledon. Briefly: tissue or blood. The class given is cell-based, Cucumis sativa var. National Pickling. As to conditions: 0.06-64 ppm typically tested, inactive if more than 200 ppm; for EC50: Cucumis sativus, read-out: ED50 (the source's name).
The subject of the next assay is cucumber cotyledons. Kind of assay: Antagonism of cytokinin activity by a cytokinin antagonist in the cucumber cotyledon bioassay. It counts as cell-based, Cucumis sativa var. National Pickling. On the procedure: Cucumber seeds (Cucumis sativa var. National Pickling) are germinated in vermiculite in the dark at 30° C. for 6 days. The cotyledons are subsequently excised under a dim green safelight and placed abaxial side up in […] petri dishes at 8 pairs of cotyledons per dish. The dishes also contain three layers of Whatman No. 1 filter paper and 10 mls of test solution. The dishes with cotyledons are returned to the dark at 30° C. for about 18 hours. Thereafter the dishes are placed under fluorescent light at about 12 μw per square cm for 3 hours at 25° C. The cotyledons are then blotted and placed in 5 ml of dimethylformamide overnight and at 4° C. to extract the chlorophyll. The leachate is then analyzed for absorbance at 663 nanometers by spectrophotometry (Moran and Porath Plant Physical (1980) 65: 478-9) to determine relative chlorophyll biosynthesis. The cotyledons are then measured for area by using a sensitive leaf area meter. These two parameters, chlorophyll synthesis and enhanced expansion of the cotyledons are used as a measure of relative cytokinin activity. The test solutions typically contain between 0.06 and 64 ppm of test compound, up to 1.3% acetone, and 40 mM KCl. The amount of compound is varied in order to determine the dose at which there is achieved a response which is 50% of the maximum possible enhancement, as judged by a standard. This is termed the 50% effective dose or ED50 (Table).
The above compound is a known (Hecht et al.) Biochemistry 10:4224 (1971) antagonist of the activity of cytokinins such as the natural cytokinin 6-(3-methyl-2-butenylamino)purine (2iP). For example 0.003 μM 2iP is required for maximum growth of tobacco callus tissue cultures. The antagonist decreases this effect in the range of 0.1 μM (detectable) to 0.73 μM (lethal). (Ref. Skoog et al. Phytochemistry 12: 25-37 (1973)).
Test solutions are prepared to contain a test compound in both the presence and absence of the antagonist.

The test system of the next assay is Soybean callus. Kind of assay: Soybean callus culture bioassay (definitive cytokinin activity). As to conditions: for Callus Dry Weight / Callus Fresh Weight: 6 weeks, 3 flasks per treatment; for Callus Dry Weight: no supplement 22.2 ± 9; for Callus Fresh Weight: initial fresh weight 240 mg, no supplement 283 ± 99. The class given is cell-based, Glycine max CV. Acme. On the procedure:
Soybean callus cultures (from Glycine max CV. Acme) are subdivided into smaller callus pieces each weighing about 80 mg each. These pieces are placed on 50 ml of agar containing nutrient medium from which the usual growth supporting cytokinin hormone has been deleted. Without cytokinin hormone, the callus tissue will not divide and grow. Any compound which can provide for growth of the callus under these circumstances is by definition a cytokinin. The test is thus definitive and diagnostic. Different flasks of the nutrient medium are therefore supplemented with either the known cytokinin N^6 -benzyladenine as a standard or with the indicated test compound. After 6 weeks of axenic culture, the callus pieces are weighed, then oven dried and weighed again, such that the amount of callus growth is determined as a function of increased tissue weight.

Assay [1] deals with habituated callus tissue (Nicotiana tabacum A21-10H). Kind of assay: Stimulation of callus growth from a habituated line of Nicotiana tabacum. As to conditions: for Callus Growth Fresh weight: 0.02 ppm naphthalene acetic acid, untreated 0.6; for Chlorophyll production: untreated -. The class given is cell-based. Also on record: key to Chlorophyll production: -: None; +: Slight; ++: Moderate; +++: Very Good. As to the method: A specialized callus tissue (Nicotiana tabacum A21-10H) which was known to be unique in that it had been selected to no longer require cytokinins for callus to grow (this condition is known as "habituated") as long as 2 ppm naphthalene acetic acid was present in the medium, is transferred to flasks of basal media containing mineral salts based on the formulation of Murashige and Skoog, Physiologia plantarum 15: 473-497 (1962), and containing 100 mg per liter of i-inositol, 0.4 mg per liter of thiamine.HCl, and 3% sucrose (Huang, L. C. and T. Murashige 1976, TCA manual 3(1): 539-548) as well as 0.9% to 0.95% Difco® agar. The pH of the medium is adjusted to pH 5.8.
Test solutions are added from 5000 ppm stock solutions in ethanol and the stimulation of callus growth determined by the increase in fresh weight per treatment (per flask) in grams and by chlorophyll production rated as indicated in the rating system below. (No shoot regeneration can occur in this line due to the length of time (>4 years) it has been maintained in culture.)

Assay [2] relates to tobacco callus tissue cultures. As to conditions: cited from earlier work.

We go through 21 compounds from US4822408A, “Alkyl-, alkenyl- and alkynylnitroguanidines as cytokinin plant growth regulants” (American Cyanamid Company, priority 1987, dated 1989).

≈ marks a conversion by molar mass, not a printed value. Where “and” joins values, the source holds several entries; their conditions need not be identical. Equal entries are not always repeated. Where two headings read alike, the source gives them in different places.

Regarding `N=C(NCCCC(N)C(=O)O)N[N+](=O)[O-]` (centres unmarked), in the assay with cucumber cotyledon, the EC50 turned out to be 31 mg/L (≈ 141 µM).

Regarding `C/C(Cl)=C/CNC(=N)N[N+](=O)[O-]`, the EC50 in the assay with cucumber cotyledon turned out to be 1 mg/L (≈ 5.19 µM).

For the compound `CC(CO)CCNC(=N)N[N+](=O)[O-]` (centres unmarked), the EC50 in the assay on cucumber cotyledon was 14 mg/L (≈ 73.6 µM).

For the compound `C/C(=C\CNC(=N)N[N+](=O)[O-])CO`, the EC50 in the assay on cucumber cotyledon is 2.5 mg/L (≈ 13.3 µM).

As to `CC(C)=CCNC(=N)N[N+](=O)[O-]` [1-(3-methyl-2-butenyl)-3-nitroguanidine], the “Relative Chlorophyll” value in the assay with cucumber cotyledons (Experiment B, 20 ppm, antagonist none, H2O alone 443) came out at 1200. Moreover, the “Relative Chlorophyll” value in the assay with cucumber cotyledons (Experiment B, 20 ppm, with antagonist 10 ppm, H2O alone 443) was determined as 388. In the assay with Soybean callus (10^-4 M), the “effect on callus growth at 10^-4 M” value was “extremely active”, the “Callus Dry Weight” value is 410 ± 87 mg per 3 pieces and the “Callus Fresh Weight” value was determined as 5324 ± 1148 mg per 3 pieces. For the same compound, in the assay on cucumber cotyledon, the EC50 was 3.8 mg/L (≈ 22.1 µM). In assay [1] (Molar concentration 10^-4), the “Callus Growth Fresh weight” value amounted to 2.9 grams per flask and the Chlorophyll production result is given as “++”.

As to `CC(C)=CCNc1ncnc2nc[nH]c12` [2iP, 6-(3-methyl-2-butenylamino)purine], the “concentration required for maximum growth of tobacco callus tissue cultures” value in assay [2] is 0.003 µM.

Take `Cc1n[nH]c2c(NCCC(C)C)ncnc12` [7-(Isopentylamine)-3-methyl-1H-Pyrazolo[4,3-d]pyrimidine]: in the assay on cucumber cotyledons, the “Relative Chlorophyll” value was 415 and 406; the “effect of antagonist on response of cucumber cotyledons to N^6-benzyladenine” value was “prevents the response of cucumber cotyledons”; the “prevention of enhancement of chlorophyll synthesis” value is listed as “able to fully prevent the enhancement of chlorophyll synthesis”. Further, the “antagonist concentration decreasing the effect of 2iP, detectable” value in assay [2] (detectable, against 2iP) was 0.1 µM. Also, the “antagonist concentration decreasing the effect of 2iP, lethal” value in assay [2] (lethal, against 2iP) was 0.73 µM.

`CC(C)CCNC(=N)N[N+](=O)[O-]` [(CH3)2 CHCH2 CH2]: in the assay with cucumber cotyledon, the EC50 is 64 mg/L (≈ 367 µM).

On to `CC(C)NC(=N)N[N+](=O)[O-]` [(CH3)2 CH], for which the ED50 in the assay on cucumber cotyledon stood at 45 ppm.

`CC(C)(C)NC(=N)N[N+](=O)[O-]` [(CH3)3 C] displayed an ED50 with cucumber cotyledon of 31 ppm.

Regarding `N=C(NCCC=C(Cl)Cl)N[N+](=O)[O-]` [(Cl)2 CCHCH2 CH 2], the EC50 in the assay on cucumber cotyledon was found to be 11 mg/L (≈ 48.4 µM).

`CCCCNC(=N)N[N+](=O)[O-]` [-n-C4 H9]: in the assay on cucumber cotyledon, the EC50 stood at 31 mg/L (≈ 194 µM).

As to `CCCCCNC(=N)N[N+](=O)[O-]` [-n-C5 H11], the EC50 with cucumber cotyledon came to 31 mg/L (≈ 178 µM).

As for `CCC(C)(C)NC(=N)N[N+](=O)[O-]` [C2 H5 C(CH3)2], the EC50 in the assay with cucumber cotyledon was determined as 22 mg/L (≈ 126 µM).

For `CCOCCNC(=N)N[N+](=O)[O-]` [C2 H5 OCH2 CH2], the EC50 in the assay with cucumber cotyledon is 113 mg/L (≈ 641 µM).

Turning to `C=CC(C)(C)NC(=N)N[N+](=O)[O-]` [CH2CHC(CH3)2], the ED50 in the assay on cucumber cotyledon was found to be 157 ppm.

Compound `C=CCNC(=N)N[N+](=O)[O-]` [CH2CHCH2] returned an ED50 with cucumber cotyledon of 22 ppm.

For `COCC(C)NC(=N)N[N+](=O)[O-]` (centres unmarked) [CH3 OCH2 CH(CH3)], the EC50 in the assay on cucumber cotyledon was 113 mg/L (≈ 641 µM).

Turning to `N=C(NCCCCO)N[N+](=O)[O-]` [HOCH2 CH2 CH2 CH2], the EC50 in the assay on cucumber cotyledon was found to be 113 mg/L (≈ 641 µM).

Take `c1coc(CNc2ncnc3[nH]cnc23)c1` [Kinetin]: the “Callus Growth Fresh weight” value in assay [1] (Molar concentration 10^-4) is 1.4 grams per flask; in assay [1] (Molar concentration 10^-5), 0.8 grams per flask; in assay [1] (Molar concentration 10^-6) it was 0.3 grams per flask; in assay [1] (Molar concentration 10^-7) it was 0.2 grams per flask. Besides, the Chlorophyll production entry in assay [1] (Molar concentration 10^-4), in assay [1] (Molar concentration 10^-5), in assay [1] (Molar concentration 10^-6) and in assay [1] (Molar concentration 10^-7) was “-” in each case. In assay [1] (reduced auxin level (0.02 ppm naphthalene acetic acid)), the “efficacy in the habituated callus system” value was “ineffective”.

Turning to `c1ccc(CNc2ncnc3nc[nH]c23)cc1` [N^6 benzyladenine, N^6 -benzyladenine], the “Relative Chlorophyll” value with cucumber cotyledons (Experiment A, 0.1 ppm, antagonist none, H2O alone 370) stood at 853. Also, the “Relative Chlorophyll” value in the assay on cucumber cotyledons (Experiment A, 0.1 ppm, with antagonist 10 ppm, H2O alone 370) was found to be 460. The “optimum concentration of the standard” value with Soybean callus was 10^-6 M. In addition, in the assay on Soybean callus (10^-4 M), the “effect on callus growth at 10^-4 M” value is on record as “supraoptimal effect whereby the beneficial effect was negated”, the “Callus Dry Weight” value was determined as 28 ± 5 mg per 3 pieces and the “Callus Fresh Weight” value is 434 ± 193 mg per 3 pieces. Moreover, in the assay on Soybean callus (10^-6 M), the “Callus Dry Weight” value is reported as 351 ± 63 mg per 3 pieces and the “Callus Fresh Weight” value is 5826 ± 1110 mg per 3 pieces.
